The results in this text go back to patent EP4775208A1, “USE OF PRMT5 INHIBITOR IN TREATMENT OF TUMORS OR CANCERS” (Apeiron Therapeutics (Hong Kong) Ltd., priority 2023, dated 2025).

By IC50 is commonly meant the midpoint of a concentration-inhibition curve.

Assay [1] concerns HCT-116 MTAP wild-type cells. Description: Inhibition of proliferation of HCT-116 MTAP wild-type cells (Cell-Titer Glo). It is filed as cell-based. The conditions noted are these: Homo sapiens, HCT-116, 192 h, 8 days. How it is done:
Test 2: Compound's inhibitory activity on proliferation of HCT-116 MTAP wild-type cells.
Materials and Cells: HCT-116 MTAP wild-type cells obtained from Kyinno Bio (China); RPMI-1640 medium, fetal bovine serum, and penicillin-streptomycin purchased from Thermo Fisher Scientific (America); 384-well plates from PerkinElmer (America); Cell-Titer Glo assay kit from Promega (America).
Cell Culture: HCT116 MTAP wild-type cells were cultured in RPMI 1640 medium containing 10% fetal bovine serum and 1% penicillin-streptomycin at 37°C, 5% CO2. Only cells in logarithmic growth phase were used for experiments.
Cell Proliferation Inhibition Assay: The compound's inhibitory activity on HCT-116 MTAP wild-type cells was assessed using the Cell-Titer Glo assay kit. Adjusting cell concentration, 40 µL was seeded into a 384-well plate and cultured overnight at 37°C, 5% CO2. Each well received 40 nL of the compound, achieving concentrations from 0 to 10,000 nM (starting concentration 10,000 nM, 3-fold dilution, 10 points), with 0.1% DMSO. The cell plate was incubated for 8 days at 37°C, 5% CO2. Cell-Titer Glo reagent (40 µL) was added to measure cell viability.

The test system of assay [2] is HCT-116 MTAP(-/-) deficient cells. Description: Inhibition of proliferation of HCT-116 MTAP(-/-) deficient cells (Cell-Titer Glo). Type of assay: cell-based. The conditions noted are these: Homo sapiens, HCT-116, 192 h, 8 days. How it is done:
Test 1: Compound's inhibitory activity on proliferation of HCT-116 MTAP(-/-) deficient cells.
Materials and Cells: HCT-116 MTAP(-/-) deficient cells obtained from Kyinno Bio (China); RPMI-1640 medium, fetal bovine serum, and penicillin-streptomycin purchased from Thermo Fisher Scientific (America); 384-well plates from PerkinElmer (America); Cell-Titer Glo assay kit from Promega (America).
Cell Culture: HCT116 MTAP(-/-) deficient cells were cultured in RPMI 1640 medium containing 10% fetal bovine serum and 1% penicillin-streptomycin at 37°C, 5% CO2. Only cells in logarithmic growth phase were used for experiments.
Cell Proliferation Inhibition Assay: The compound's inhibitory activity on HCT-116 MTAP(-/-) deficient cells was assessed using the Cell-Titer Glo assay kit. Adjusting cell concentration, 40 µL was seeded into a 384-well plate and cultured overnight at 37°C, 5% CO2. Each well received 40 nL of the compound, achieving concentrations from 0 to 10,000 nM (starting concentration 10,000 nM, 3-fold dilution, 10 points), with 0.1% DMSO. The cell plate was incubated for 8 days at 37°C, 5% CO2. Cell-Titer Glo reagent (40 µL) was added to measure cell viability.

Some results are limits rather than exact numbers.

Regarding `CN(C(=O)c1ccc2nc(N)c3cncn3c2c1)[C@@H]1COc2cc(-c3cnn(C)c3)ccc21` [Example 2, (S)-4-amino-N-methy 1-N-(6-(1-methyl-1H-pyrazol-4-yl)-2,3-dihydrobenzofuran-3-yl)i midazo[1,5-a]quinoxa line-8-carboxamide], the IC50 in assay [1] was found to be 6670 nM; in assay [2] it was 61 nM.
The corresponding values for `CN(C(=O)c1ccc2nc(N)c3cncn3c2c1)[C@@H]1COc2cc(Br)ccc21` [Example 3, (S)-4-amino-N-(6-bromo-2,3-dihydrobenzof uran-3-yl)-N-methyli midazo[1,5-a]quinoxaline-8-carboxamide] are 2250 nM and 23.4 nM.
For `CC1OC[C@@H](N(C)C(=O)c2ccc3nc(N)c4cncn4c3c2)c2ccc(C(F)(F)F)cc21` (stereo partly drawn) [Example 5, 4-amino-N-methyl-N-((4S)-1-methyl-7-(trifluoromethyl)isochroman-4-yl)imidazo[1,5-a]quinoxaline-8-carbox amide], in that order: 280 nM and 4 nM.
For `Cc1ncn2c1c(N)nc1ccc(C(=O)N(C)[C@@H]3COc4cc(C(F)(F)F)ccc43)cc12` [Example 6, (S)-4-amino-N,3-dime thyl-N-(6-(trifluoromethyl)-2,3-dihydrobenzofuran-3-yl)imidazo[1 ,5-a]quinoxaline-8-car boxamide], in that order: 993 nM and 10.6 nM.
As for `CN(C(=O)c1ccc2nc(N)c3cncn3c2c1)C1COc2nc(C(F)(F)F)ccc21` (stereo not drawn) [Example 7, 4-amino-N-methyl-N-(6-(trifluoromethyl)-2,3-dihydrofuro[2,3-b]pyridin-3-yl)imidazo[1,5-a]quinoxaline-8-car boxamide], the IC50 in assay [1] was above 10000 nM; in assay [2] it was 141 nM.
The corresponding values for `CN(C(=O)c1ccc2nc(N)c3cncn3c2c1)C1COCc2ccc(C(F)(F)F)cc21` (stereo not drawn) [Example 8, 4-amino-N-methyl-N-(6-(trifluoromethyl)isochroman-4-yl)imidaz o[1,5-a]quinoxaline-8-carboxamide] are 6480 nM and 106 nM.
The corresponding values for `CC1OC[C@@H](N(C)C(=O)c2ccc3nc(N)c4cncn4c3c2)c2ccc(F)cc21` (stereo partly drawn) [Example 9, 4-amino-N-((4S)-7-fluoro-1-methylisochroman-4-yl)-N-methyli midazo[1,5-a]quinoxa line-8-carboxamide] are 2140 nM and 41.1 nM.
For `CN(C(=O)c1ccc2nc(N)c3cncn3c2c1)[C@@H]1COc2cc(C#N)ccc21` [Example 10, (S)-4-amino-N-(6-cyano-2,3-dihydrobenzof uran-3-yl)-N-methyli midazo[1,5-a]quinoxa line-8-carboxamide], in that order: 3110 nM and 31.2 nM.
As for `CN(C(=O)c1ccc2nc(N)c3cc(F)cn3c2c1)[C@@H]1COc2cc(Br)ccc21` [Example 11, (S)-4-amino-N-(6-bromo-2,3-dihydrobenzof uran-3-yl)-2-fluoro-N -methylpyrrolo[1,2-a] quinoxaline-8-carbox amide], the IC50 in assay [1] worked out at 6410 nM; in assay [2], 1770 nM.
On to `CN(C(=O)c1cc2c(cc1Cl)nc(N)c1cncn12)[C@@H]1COc2cc(Br)ccc21` [Example 12, (S)-4-amino-N-(6-bromo-2,3-dihydrobenzof uran-3-yl)-7-chloro-N -methylimidazo[1,5-a] quinoxaline-8-carbox amide], for which the IC50 amounted to 1110 nM in assay [1] and 6.1 nM in assay [2].
In the case of `CN(C(=O)c1cc2c(cc1F)nc(N)c1cncn12)C1COC(C)(C)c2cc(C(F)(F)F)ccc21` (stereo not drawn) [Example 13, 4-amino-N-(1,1-dimethyl-7-(trifluoromethyl)isochroman-4-yl)-7-f luoro-N-methylimidaz o[1,5-a]quinoxaline-8-carboxamide], the figures for the IC50 in assay [1] and in assay [2] were 2510 nM and 15.7 nM, respectively.
On to `CC1OC[C@@H](N(C)C(=O)c2cc3c(cn2)nc(N)c2cncn23)c2ccc(Br)cc21` (stereo partly drawn) [Example 17, 4-amino-N-((4S)-7-bromo-1-methylisochroman-4-yl)-N-methyli midazo[1,5-a]pyrido[3,4-e]pyrazine-8-carb oxamide], for which the figures for the IC50 in assay [1] and in assay [2] were 243 nM and 4.2 nM, respectively.
For `CN(C(=O)c1ccc2nc(N)c3cncn3c2c1)[C@@H]1CCc2cc(C(F)(F)F)ccc21` [Example 18, (R)-4-amino-N-methy 1-N-(5-(trifluoromethy 1)-2,3-dihydro-1H-inden-1-yl)imidazo[1,5-a]quinoxaline-8-carbox amide], the IC50 was determined as 4330 nM in assay [1] and 14.5 nM in assay [2].
In the case of `CC1OC[C@@H](N(C)C(=O)c2ccc3nc(N)c4cncn4c3c2)c2cc(C(F)(F)F)ccc21` (stereo partly drawn) [Example 19, 4-amino-N-methyl-N-((4S)-1-methyl-6-(trifluoromethyl)isochroman-4-yl)imidazo[1,5-a]quinoxaline-8-carbox amide], the values for the IC50 in assay [1] and in assay [2] were 2230 nM and 23.2 nM, respectively.
For `CN(C(=O)c1ccc2nc(N)c3cncn3c2c1)[C@@H]1COc2cc(P(C)(C)=O)ccc21` [Example 20, (S)-4-amino-N-(6-(dimethylphosphoryl)-2,3-dihydrobenzofuran-3-yl)-N-methylimidaz o[1,5-a]quinoxaline-8-carboxamide], in that order: above 10000 nM and above 3000 nM.
For `Cc1ncc(-c2ccc3c(c2)C(C)OC[C@H]3N(C)C(=O)c2ccc3nc(N)c4cncn4c3c2)cn1` (stereo partly drawn) [Example 21, 4-amino-N-methyl-N-((4S)-1-methyl-7-(2-methylpyrimidin-5-yl)isochroman-4-yl)imid azo[1,5-a]quinoxaline-8-carboxamide], in that order: 2130 nM and 14.8 nM.
With `CN(C(=O)c1ccc2nc(N)c3cncn3c2c1)[C@@H]1CCc2cc(C(F)(F)F)ncc21` [Example 23, (R)-4-amino-N-methy 1-N-(3-(trifluoromethy 1)-6,7-dihydro-5H-cyclopenta[c]pyridin-7-yl)imidazo[1,5-a]quinox aline-8-carboxamide], the 50% inhibitory concentration (IC50) in assay [1] is above 10000 nM; in assay [2] it was 120 nM.
For `CN(C(=O)c1cc2c(cn1)nc(N)c1cncn12)[C@@H]1CCc2cc(C(F)(F)F)ncc21` [Example 24, (R)-4-amino-N-methy 1-N-(3-(trifluoromethy 1)-6,7-dihydro-5H-cyclopenta[c]pyridin-7-yl)imidazo[1,5-a]pyrido [3,4-e]pyrazine-8-carb oxamide], in that order: above 10000 nM and 148 nM.
Consider `CN(C(=O)c1ccc2nc(N)c3cncn3c2c1)[C@@H]1CCOc2cc(C(F)(F)F)ccc21` [Example 25, (R)-4-amino-N-methy 1-N-(7-(trifluoromethy 1)chroman-4-yl)imida zo[1,5-a]quinoxaline-8-carboxamide], for which the half-maximal inhibitory concentration (IC50) in assay [1] is above 10000 nM; in assay [2] it was 177 nM.
The corresponding values for `CN(C(=O)c1ccc2nc(N)c3cncn3c2c1)[C@@H]1COc2cc(C(F)(F)F)ncc21` [Example 26, (S)-4-amino-N-methy 1-N-(6-(trifluoromethy 1)-2,3-dihydrofuro[3,2-c]pyridin-3-yl)imidaz o[1,5-a]quinoxaline-8-carboxamide] are above 10000 nM and 67.7 nM.
The corresponding values for `CN(C(=O)c1cc2c(cc1Cl)nc(N)c1cncn12)[C@@H]1COc2cc(C(F)(F)F)ccc21` [Example 27, (S)-4-amino-7-chloro-N-methyl-N-(6-(trifluoromethyl)-2,3-dihydrobenzofuran-3-yl)imi dazo[1,5-a]quinoxaline-8-carboxamide] are 842 nM and 4.4 nM.
For `CN(C(=O)c1ccc2nc(N)c3cncn3c2c1)[C@@H]1COc2cc(S(C)(=O)=O)ccc21` [Example 28, (S)-4-amino-N-methy 1-N-(6-(methylsulfony 1)-2,3-dihydrobenzofuran-3-yl)imidazo[1,5-a]quinoxaline-8-carbo xamide], in that order: above 10000 nM and 321 nM.
For `CN(C(=O)c1ccc2nc(N)c3cncn3c2n1)[C@@H]1COc2cc(C(F)(F)F)ccc21` [Example 30, (S)-6-amino-N-methy 1-N-(6-(trifluoromethy 1)-2,3-dihydrobenzofuran-3-yl)imidazo[1,5-a]pyrido[3,2-e]pyrazine-2-carboxamide], the half-inhibitory concentration (IC50) in assay [1] is above 10000 nM; in assay [2] it was 2090 nM.
Take `CN(C(=O)c1cc2c(cn1)nc(N)c1cncn12)[C@@H]1COc2cc(C(F)(F)F)ncc21` [Example 31, (S)-4-amino-N-methy 1-N-(6-(trifluoromethy 1)-2,3-dihydrofuro[3,2-c]pyridin-3-yl)imidaz o[1,5-a]pyrido[3,4-e]p yrazine-8-carboxamide]: the half-maximal inhibitory concentration (IC50) in assay [1] is above 10000 nM; in assay [2] it was 297 nM.
